Our source for the Activity, IC50 and inhibition values is ChEMBL document CHEMBL6177923, “Novel rhodanine-thiazole hybrids as potential antidiabetic agents: a structure-based drug design approach” (RSC Med Chem, 2025).

The source made the active and inactive calls. The rule behind the calls is not given here.

In series [1] the test system is L929. Briefly: Cytotoxicity against mouse L929 cells by MTT assay. It is filed as toxicity, cell-based. Background: Tetrazolium assays rely on reduction of a dye to a coloured formazan, in cell work by metabolically active cells.
Series [2] deals with Lysosomal alpha-glucosidase (Homo sapiens, UniProt P10253). Briefly: Inhibition of human lysosomal alpha-glucosidase preincubated for 10 mins followed by p-nitrophenyl-alpha-D glucopyranoside addition and measured after 30 mins by absorbance based analysis.
Series [3] relates to HepG2. Briefly: Upregulation of PPAR-gamma expression in human HepG2 cells by RayBio PPAR-gamma TF activity assay. It is filed as functional, cell-based. The note with it: dose 6.25-100 µM.

In general, IC50 refers to the midpoint of a concentration-inhibition curve. A low value points to inhibition by little substance.

`O=C(O)CN1C(=O)/C(=C/c2ccc(/C=N/Nc3nc(-c4ccccc4)cs3)cc2)SC1=S`: the Activity entry in series [1] is listed as “Non-toxic”. The molecule also returned an IC50 in series [2] of 29.1 µM.
As for `COc1ccc(-c2csc(N/N=C/c3ccc(/C=C4\SC(=S)N(CC(=O)O)C4=O)cc3)n2)cc1`, in series [1], the Activity result is “Non-toxic”. For the same molecule, the IC50 in series [2] is 63.2 µM.
As for `O=C1NC(=S)S/C1=C\c1ccc(/C=N/Nc2nc(-c3ccc(Cl)cc3)cs2)cc1`, the Activity entry in series [1] is “Non-toxic”; in series [3], “Dose-dependent-effect”. Besides, in series [2], inhibition was half-maximal at 33.2 µM (IC50).
As to `O=C1NC(=S)S/C1=C\c1ccc(/C=N/Nc2nc(-c3ccc(F)cc3)cs2)cc1`, the Activity result in series [1] is given as “Non-toxic”. This molecule displayed a half-inhibitory concentration (IC50) in series [2] of 148 µM.
Regarding `O=C1NC(=S)S/C1=C\c1ccc(/C=N/Nc2nc(-c3ccc(Br)cc3)cs2)cc1`, the Activity entry was “Non-toxic” in series [1] and “Dose-dependent-effect” in series [3]. The molecule further came in with an IC50 in series [2] of 32.2 µM.
In the case of `O=C(O)CN1C(=O)/C(=C/c2ccc(/C=N/Nc3nc(-c4ccc(Br)cc4)cs3)cc2)SC1=S`, the Activity entry in series [1] is given as “Non-toxic”. In series [2], this molecule showed an IC50 of 24.2 µM.
For `O=C(O)CN1C(=O)/C(=C/c2ccc(/C=N/Nc3nc(-c4ccc(F)cc4)cs3)cc2)SC1=S`, the Activity result in series [1] is “Non-toxic”. The molecule further displayed an IC50 in series [2] of 52 µM.
Turning to `O=C1NC(=S)S/C1=C\c1ccc(/C=N/Nc2nc(-c3ccccc3)cs2)cc1`, the Activity result in series [1] is reported as “Non-toxic”. For the same molecule, in series [2], the IC50 was found to be 55.2 µM.
Take `COc1ccc(-c2csc(N/N=C/c3ccc(/C=C4\SC(=S)NC4=O)cc3)n2)cc1`: in series [1], the Activity result is “Non-toxic”. Moreover, the IC50 in series [2] amounted to 46 µM.
`O=C(O)CN1C(=O)/C(=C/c2ccc(/C=N/Nc3nc(-c4ccc(Cl)cc4)cs3)cc2)SC1=S`: in series [1], the Activity entry was “Non-toxic”. The IC50 in series [2] came to 62.1 µM.
Turning to `Cc1ccc(-c2csc(N/N=C/c3ccc(/C=C4\SC(=S)N(CC(=O)O)C4=O)cc3)n2)cc1`, the Activity entry in series [1] is “Non-toxic”. Besides, the inhibition result in series [2] (time 40.0 min) is “inactive”.
With `Cc1ccc(-c2csc(N/N=C/c3ccc(/C=C4\SC(=S)NC4=O)cc3)n2)cc1`, the Activity entry in series [1] is “Non-toxic”. Besides, the IC50 in series [2] is 106 µM.
